Like-named read-outs stand apart in the source and are kept apart here.
Legend:
[1] = test system: Bemisia tabaci (Cotton White Fly); experiment: Activity against Bemisia tabaci, cotton leaf discs sprayed (Example B3); assay type: in vivo; details: foliar, 144 h, read-out: control of Bemisia tabaci (mortality)
Description: Activity Against Bemisia tabaci (Cotton White Fly)
Cotton leaf discs were placed on agar in a 24-well microtiter plate and sprayed with test solutions at an application rate of 200 ppm. After drying, the leaf discs were infested with 12 to 18 adults. After an incubation period of 6 days after infestation, samples were checked for mortality.

[2] = test system: Q-biotype strain of Bemisia tabaci (Neonicotinoid resistant); experiment: Control of neonicotinoid and pyrethroid resistant tobacco whitefly (Example B4 b); assay type: in vivo; details: 72 h, read-out: control of the Q-biotype (Neonicotinoid resistant) strain of Bemisia tabaci
[3] = test system: Myzus persicae (Green Peach Aphid); experiment: Activity against Myzus persicae, sunflower leaf discs sprayed (Example B1); assay type: in vivo; details: foliar, 144 h, read-out: control of Myzus persicae (mortality)
Description: (§1) Activity Against Myzus persicae (Green Peach Aphid)
Sunflower leaf discs were placed on agar in a 24-well microtiter plate and sprayed with the test solutions at an application rate of 200 ppm. After drying, the leaf discs were infested with an aphid population of mixed ages. After an incubation period of 6 days, samples were checked for mortality.

[4] = test system: Myzus persicae (Green Peach Aphid); experiment: Activity against Myzus persicae, pea seedlings with roots in test solution (Example B2); assay type: in vivo; details: 144 h, read-out: control of Myzus persicae (mortality)
Text: as §1
Pea seedlings, infested with an aphid population of mixed ages, were placed with the roots directly in the test solutions at an application rate of 24 ppm. 6 days after introduction, samples were checked for mortality.

[5] = cotton leaf discs sprayed at 200 ppm, adults, 6 days
[6] = sunflower leaf discs sprayed at 200 ppm, mixed age aphids, 6 days

| SMILES | mortality at 200 ppm [1] [%] | mortality at 200 ppm [3] [%] | mortality at 200 ppm [3, 6] [%] | mortality at 24 ppm [4] [%] | pest or weed control at 200 ppm ([2]; 200 ppm) [%] | also measured |
| --- | --- | --- | --- | --- | --- | --- |
| NC(=S)[C@@]1(c2cncc(Cl)c2)C[C@H]2CC[C@@H](C1)N2CC(F)(F)F [E.002, (1S,5R)-3-(5-chloro-3-pyridyl)-8-(2,2,2-trifluoroethyl)-8-azabicyclo[3.2.1]octane-3-carbothioamide] | ≥ 80 | ≥ 80 |  |  |  | pest or weed control at 200 ppm [2]: ≥ 80% |
| NC(=S)[C@@]1(c2cncc(I)c2)C[C@H]2C=C[C@@H](C1)N2CC(F)(F)F [E.060, (1R,5S)-3-(5-iodo-3-pyridyl)-8-(2,2,2-trifluoroethyl)-8-azabicyclo[3.2.1]oct-6-ene-3-carbothioamide] |  |  | ≥ 80 |  |  | mortality at 200 ppm [1, 5]: ≥ 80% |
| NC(=S)[C@@]1(c2cncc(F)c2)C[C@H]2C=C[C@@H](C1)N2CC(F)F [E.071, (1R,5S)-8-(2,2-difluoroethyl)-3-(5-fluoro-3-pyridyl)-8-azabicyclo[3.2.1]oct-6-ene-3-carbothioamide] | ≥ 80 | ≥ 80 |  | ≥ 80 | ≥ 80 |  |
| NC(=S)[C@@]1(c2cncc(C3CC3)c2)C[C@H]2CC[C@@H](C1)N2CC(F)(F)F [E.023] |  |  | ≥ 80 |  |  |  |
| C=CCN1[C@@H]2C=C[C@H]1C[C@](C(N)=S)(c1cncc(I)c1)C2 [E.063, (1R,5S)-8-allyl-3-(5-iodo-3-pyridyl)-8-azabicyclo[3.2.1]oct-6-ene-3-carbothioamide] | ≥ 80 | ≥ 80 |  | ≥ 80 | ≥ 80 |  |
| NC(=S)[C@@]1(c2cncc(Br)c2)C[C@H]2C=C[C@@H](C1)N2CCCC(F)(F)F [E.008, (1R,5S)-3-(5-bromo-3-pyridyl)-8-(4,4,4-trifluorobutyl)-8-azabicyclo[3.2.1]oct-6-ene-3-carbothioamide] | ≥ 80 | ≥ 80 |  | ≥ 80 | ≥ 80 |  |
| NC(=S)[C@@]1(c2cncc(I)c2)C[C@H]2C=C[C@@H](C1)N2CC(F)F [E.039, (1 S,5R)-8-(2,2-difluoroethyl)-3-(5-iodo-3-pyridyl)-8-azabicyclo[3.2.1]oct-6-ene-3-carbothioamide] | ≥ 80 | ≥ 80 |  | ≥ 80 | ≥ 80 |  |
| NC(=S)[C@@]1(c2cncc(I)c2)C[C@H]2CC[C@@H](C1)N2CC(F)F [E.072, (1 S,5R)-8-(2,2-difluoroethyl)-3-(5-iodo-3-pyridyl)-8-azabicyclo[3.2.1]octane-3-carbothioamide] | ≥ 80 | ≥ 80 |  | ≥ 80 |  | pest or weed control at 200 ppm [2]: ≥ 80% |
| N#C/N=C1\SCCN1Cc1ccc(Cl)nc1 [Thiacloprid, reference compound] |  |  |  |  |  | pest or weed control at 200 ppm [2]: < 80% |
| C#Cc1cncc([C@]2(C(N)=S)C[C@H]3C=C[C@@H](C2)N3CC(F)(F)F)c1 [E.070, (1R,5S)-3-(5-ethynyl-3-pyridyl)-8-(2,2,2-trifluoroethyl)-8-azabicyclo[3.2.1]oct-6-ene-3-carbothioamide] |  |  | ≥ 80 |  |  |  |
| C[Si](C)(C)C#Cc1cncc([C@]2(C(N)=S)C[C@H]3C=C[C@@H](C2)N3CC(F)(F)F)c1 [E.068, (1R,5S)-8-(2,2,2-trifluoroethyl)-3-[5-(2-trimethylsilylethynyl)-3-pyridyl]-8-azabicyclo[3.2.1]oct-6-ene-3-carbothioamide] |  |  | ≥ 80 |  |  |  |
| NC(=S)[C@@]1(c2cncc(Cl)c2)C[C@H]2C=C[C@@H](C1)N2CC(F)F [E.001, (1R,5S)-3-(5-chloro-3-pyridyl)-8-(2,2-difluoroethyl)-8-azabicyclo[3.2.1]oct-6-ene-3-carbothioamide] | ≥ 80 | ≥ 80 |  | ≥ 80 | ≥ 80 |  |
| O=[N+]([O-])NC1=NCCN1Cc1ccc(Cl)nc1 [Imidacloprid, reference compound] |  |  |  |  |  | pest or weed control at 200 ppm [2]: < 80% |
| N#Cc1cncc([C@]2(C(N)=S)C[C@H]3CC[C@@H](C2)N3CC(F)(F)F)c1 [E.009, (1S,5R)-3-(5-cyano-3-pyridyl)-8-(2,2,2-trifluoroethyl)-8-azabicyclo[3.2.1]octane-3-carbothioamide] | ≥ 80 | ≥ 80 |  |  |  | pest or weed control at 200 ppm [2]: ≥ 80% |
| C=C(Cl)CN1[C@@H]2C=C[C@H]1C[C@](C(N)=S)(c1cncc(Br)c1)C2 [E.013, (1R,5S)-3-(5-bromo-3-pyridyl)-8-(2-chloroallyl)-8-azabicyclo[3.2.1]oct-6-ene-3-carbothioamide] | ≥ 80 | ≥ 80 |  |  | ≥ 80 |  |
| C=C(Cl)CN1[C@@H]2CC[C@H]1C[C@](C(N)=S)(c1cncc(Br)c1)C2 [E.006, (1S,5R)-3-(5-bromo-3-pyridyl)-8-(2-chloroallyl)-8-azabicyclo[3.2.1]octane-3-carbothioamide] | ≥ 80 | ≥ 80 |  | ≥ 80 |  | pest or weed control at 200 ppm [2]: ≥ 80% |
| NC(=S)[C@@]1(c2cncc(Br)c2)C[C@H]2C=C[C@@H](C1)N2 [E.015, (1S,5R)-3-(5-bromo-3-pyridyl)-8-azabicyclo[3.2.1]oct-6-ene-3-carbothioamide] |  |  | ≥ 80 |  |  | mortality at 200 ppm [1, 5]: ≥ 80% |
| NC(=S)[C@@]1(c2cncc(Br)c2)C[C@H]2CC[C@@H](C1)N2CC(F)(F)F [E.007, (1S,5R)-3-(5-bromo-3-pyridyl)-8-(2,2,2-trifluoroethyl)-8-azabicyclo[3.2.1]octane-3-carbothioamide] | ≥ 80 | ≥ 80 |  |  |  |  |
| CC(C)(C)OC(=O)N1[C@@H]2CC[C@H]1C[C@](C(N)=S)(c1cncc(Br)c1)C2 |  |  |  |  |  | melting point: 228 to 230 °C |
| NC(=S)[C@@]1(c2cncc(I)c2)C[C@H]2C=C[C@@H](C1)N2 [E.034, (1S,5R)-3-(5-iodo-3-pyridyl)-8-azabicyclo[3.2.1]oct-6-ene-3-carbothioamide] |  |  | ≥ 80 |  |  | mortality at 200 ppm [1, 5]: ≥ 80% |
| NC(=S)[C@@]1(c2cncc(Br)c2)C[C@H]2CC[C@@H](C1)N2 [E.010, (1R,5S)-3-(5-bromo-3-pyridyl)-8-azabicyclo[3.2.1]octane-3-carbothioamide] |  |  | ≥ 80 |  |  | mortality at 200 ppm [1, 5]: ≥ 80%; mortality at 24 ppm ([4]; pea seedlings, roots in test solution at 24 ppm, 6 days): ≥ 80% |
| C=C(Cl)CN1[C@@H]2C=C[C@H]1C[C@](C(N)=S)(c1cncc(C#N)c1)C2 [E.012, (1 S,5R)-8-(2-chloroallyl)-3-(5-cyano-3-pyridyl)-8-azabicyclo[3.2.1]oct-6-ene-3-carbothioamide] |  |  |  | ≥ 80 | ≥ 80 |  |

Reference: patent US20160214974A1 (SYNGENTA PARTICIPATIONS AG, priority 2013, published 2016)
